Experimental findings from PubChem BioAssay (NCI) are described below.

Some test systems named below: 786-0 renal; NCI-H23 lung; A498 renal; MOLT-4 leukemia; OVCAR-8 ovarian; SK-MEL-2 melanoma; SW-620 colon; KM12 colon; A549 NSCLC.
Common to all, as to assay: NCI anticancer screen, dose series, 48 h

SMILES strings stand for the structures. “And” between values parts separate entries of the source, which are not always exact repeats. Equal values may be shown once.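 Briefly, cells in 96-well plates were exposed to five compound concentrations for 48 h, and endpoints were estimated by linear interpolation. GI50 is the concentration that inhibits growth by half. TGI is the concentration that stops growth completely.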

Consider `CN1C=CN(Cc2ccc(-c3ccccn3)nc2)[CH-]1.CN1C=CN(Cc2ccc(-c3ccccn3)nc2)[CH-]1.[Au+3]`, for which the GI50 in the experiment with 786-0 renal was 6.14 µM; with NCI-H23 lung, 5.37 µM; with A498 renal, 8.53 µM; with MOLT-4 leukemia it was 1.1 µM; in the experiment on OVCAR-8 ovarian, 3.19 µM; in the experiment on SK-MEL-2 melanoma, 7.05 µM. Further, the GI50 in the experiment on SW-620 colon is 0.898 µM; in the experiment with KM12 colon, 1.89 µM; with A549 NSCLC it was 8.69 µM. Also, the TGI with 786-0 renal is more than 100 µM; in the experiment with NCI-H23 lung it was more than 100 µM; with A498 renal, more than 68.8 µM; in the experiment on MOLT-4 leukemia, 12.4 µM; with OVCAR-8 ovarian it was more than 100 µM; with SK-MEL-2 melanoma, 32.4 µM. Besides, the TGI in the experiment on SW-620 colon is 17.2 µM; in the experiment with KM12 colon, more than 38.2 µM; with A549 NSCLC, more than 100 µM.
In the case of `COc1cc(SC)ccc1C(=O)N1CCCC(C)C1` (stereo not given), the GI50 in the experiment on 786-0 renal was more than 100 µM; with NCI-H23 lung it was 70 µM; in the experiment with A498 renal, 34.4 µM; with MOLT-4 leukemia, 77.7 µM; with OVCAR-8 ovarian it was more than 100 µM; in the experiment with SK-MEL-2 melanoma, more than 100 µM. The GI50 with SW-620 colon, in the experiment on KM12 colon and in the experiment on A549 NSCLC was more than 100 µM in each case. Also, the TGI in the experiment with 786-0 renal, in the experiment with NCI-H23 lung, with A498 renal, in the experiment on MOLT-4 leukemia, in the experiment on OVCAR-8 ovarian and in the experiment on SK-MEL-2 melanoma was more than 100 µM in each case. In addition, the TGI in the experiment on SW-620 colon, in the experiment with KM12 colon and in the experiment with A549 NSCLC was more than 100 µM throughout.
Turning to `C/C(=N\n1c(N)c(C#N)c(-c2ccc(Cl)cc2)c(C#N)c1=O)c1cccnc1`, the GI50 in the experiment on 786-0 renal, in the experiment with NCI-H23 lung, with MOLT-4 leukemia, in the experiment with OVCAR-8 ovarian, with SK-MEL-2 melanoma and with SW-620 colon was more than 100 µM each time. The GI50 in the experiment on KM12 colon and in the experiment with A549 NSCLC was more than 100 µM throughout. Further, the TGI in the experiment with 786-0 renal, with NCI-H23 lung, with MOLT-4 leukemia, in the experiment with OVCAR-8 ovarian, with SK-MEL-2 melanoma and with SW-620 colon was more than 100 µM in each case. In addition, the TGI with KM12 colon and in the experiment on A549 NSCLC was more than 100 µM each time.
Take `NC(=NC1C2CC3CC(C2)CC1C3)Nc1ccc(I)cc1` (stereo not given): the GI50 in the experiment on 786-0 renal was 4.03 µM; in the experiment on NCI-H23 lung, 2.77 µM; in the experiment on A498 renal it was 2.47 µM; in the experiment on MOLT-4 leukemia, 2.22 µM; in the experiment on OVCAR-8 ovarian it was 6.61 µM; in the experiment on SK-MEL-2 melanoma, 2.63 µM. In addition, the GI50 in the experiment on SW-620 colon was 2.64 µM; with A549 NSCLC, 3.44 µM. Also, the TGI in the experiment on 786-0 renal came to 15.5 µM; in the experiment on NCI-H23 lung it was 10.7 µM; with A498 renal, 6.77 µM; with MOLT-4 leukemia it was 8.79 µM; in the experiment with OVCAR-8 ovarian, 23.4 µM; in the experiment with SK-MEL-2 melanoma it was 7.62 µM. In addition, the results for the TGI in the experiment on SW-620 colon and in the experiment on A549 NSCLC were 11.6 µM and 14.2 µM, respectively.
As to `CCOc1ccc(N2C(N)=NC(N)=NC2(C)C)cc1`, the GI50 in the experiment on 786-0 renal is 44.9 µM; with NCI-H23 lung, 58.8 µM; in the experiment with MOLT-4 leukemia, 65.6 µM; with OVCAR-8 ovarian, 62.3 µM; in the experiment on SK-MEL-2 melanoma, more than 100 µM; in the experiment with SW-620 colon, 37.6 µM. Besides, the GI50 in the experiment on KM12 colon was 74 µM; in the experiment with A549 NSCLC, 50.1 µM. Besides, the TGI with 786-0 renal, in the experiment on NCI-H23 lung, in the experiment with MOLT-4 leukemia, in the experiment on OVCAR-8 ovarian, with SK-MEL-2 melanoma and with SW-620 colon was more than 100 µM in each case. The TGI with KM12 colon and in the experiment with A549 NSCLC was more than 100 µM each time.
On to `C[C@@H]1CC[C@H]2C(CN3CCN(CC4=C(C(F)(F)F)O[C@@H]5O[C@@]6(C)CC[C@H]7[C@H](C)CC[C@@H]4[C@@]57OO6)CC3)=C(C(F)(F)F)O[C@@H]3O[C@@]4(C)CC[C@@H]1[C@]32OO4`, for which the GI50 in the experiment with 786-0 renal is 1.8 µM; in the experiment with NCI-H23 lung, 2.07 µM; in the experiment with MOLT-4 leukemia it was 5.35 µM; in the experiment on OVCAR-8 ovarian it was 2.29 µM; with SK-MEL-2 melanoma, 10.6 µM; in the experiment with SW-620 colon, 1.12 µM. The values for the GI50 with KM12 colon and with A549 NSCLC were 0.944 µM and 3.31 µM, respectively. The TGI was more than 37.3 µM with 786-0 renal; more than 100 µM with NCI-H23 lung; more than 100 µM with MOLT-4 leukemia; more than 100 µM in the experiment with OVCAR-8 ovarian; more than 100 µM in the experiment on SK-MEL-2 melanoma; more than 100 µM with SW-620 colon. The TGI with KM12 colon was more than 26.6 µM; with A549 NSCLC it was more than 100 µM.
As for `C[C@H]1CC(=O)[C@@]2(O)C#C/C=C\C#C[C@@H]3Nc4c(cc(O)c5c4C(=O)c4ccccc4C5=O)[C@]24O[C@]314`, the GI50 with 786-0 renal was 0.00435 µM; with NCI-H23 lung it was 0.00359 µM; in the experiment with MOLT-4 leukemia it was 0.0025 µM; with OVCAR-8 ovarian, 0.00468 µM; in the experiment with SW-620 colon it was 0.0059 µM; in the experiment with KM12 colon, 0.128 µM. Also, the TGI is 0.106 µM and 0.262 µM in the experiment with 786-0 renal; 0.0592 µM and 0.101 µM in the experiment on NCI-H23 lung; 0.217 µM with A498 renal; 0.00278 µM in the experiment with MOLT-4 leukemia; 0.124 µM and 0.258 µM in the experiment with OVCAR-8 ovarian; 0.306 µM and 0.337 µM in the experiment on SW-620 colon. Besides, the TGI in the experiment on KM12 colon is 0.226 µM and 0.48 µM; in the experiment on A549 NSCLC, 0.82 µM.
As to `ClCc1ccc(Cn2cnc3ncnc(Cl)c32)cc1`, the GI50 was 1.68 µM in the experiment with 786-0 renal; 16 µM in the experiment on NCI-H23 lung; 1.81 µM in the experiment with A498 renal; 3.14 µM in the experiment on OVCAR-8 ovarian; 6.3 µM with SK-MEL-2 melanoma; 2.58 µM in the experiment with SW-620 colon. Also, the GI50 in the experiment with KM12 colon is 1.66 µM; in the experiment with A549 NSCLC it was 1.81 µM. Moreover, the TGI with 786-0 renal is 3.05 µM; with NCI-H23 lung, 30.6 µM; in the experiment on A498 renal, 3.37 µM; in the experiment with OVCAR-8 ovarian, 11 µM; with SK-MEL-2 melanoma it was more than 100 µM; in the experiment with SW-620 colon, 7.18 µM. In addition, the TGI with KM12 colon worked out at 3.48 µM; with A549 NSCLC it was 4.13 µM.
Turning to `CCCCN=C(OC1C=CCCC1)SC` (stereo not given), the TGI in the experiment with 786-0 renal, in the experiment on NCI-H23 lung, with A498 renal, with MOLT-4 leukemia, in the experiment with OVCAR-8 ovarian and in the experiment with SW-620 colon was more than 100 µM in each case. The compound further yielded a TGI in the experiment with A549 NSCLC of more than 100 µM.
`CCOC(=O)c1cc2cc([N+](=O)[O-])ccc2oc1=O`: the TGI in the experiment on 786-0 renal, in the experiment with NCI-H23 lung, in the experiment with A498 renal, with MOLT-4 leukemia, in the experiment on OVCAR-8 ovarian and in the experiment with SW-620 colon was more than 100 µM throughout. Besides, the TGI in the experiment with KM12 colon and with A549 NSCLC was more than 100 µM throughout.
